Assay results reported in patent US20160022636A1, “PHYSIOLOGICAL LIGANDS FOR GPR139” (JANSSEN PHARMACEUTICA NV, priority 2013, published 2016).
Where “and” joins values, the source holds several entries; their conditions need not be identical. Equal values may be shown once.

Legend:
[1] = molecular target: T1, mouse GPR139 (Mus musculus, UniProt Q80UC8); experiment: GTPγS binding dose response, COS7 membranes co-transfected with mouse GPR139 and GO2Q; assay type: biochemical; settings: mouse GPR139, FIG. 2 C and D
T1 construct: expressed in transfected cells; host or cells: COS7
T1 sequence (Q80UC8 1-345): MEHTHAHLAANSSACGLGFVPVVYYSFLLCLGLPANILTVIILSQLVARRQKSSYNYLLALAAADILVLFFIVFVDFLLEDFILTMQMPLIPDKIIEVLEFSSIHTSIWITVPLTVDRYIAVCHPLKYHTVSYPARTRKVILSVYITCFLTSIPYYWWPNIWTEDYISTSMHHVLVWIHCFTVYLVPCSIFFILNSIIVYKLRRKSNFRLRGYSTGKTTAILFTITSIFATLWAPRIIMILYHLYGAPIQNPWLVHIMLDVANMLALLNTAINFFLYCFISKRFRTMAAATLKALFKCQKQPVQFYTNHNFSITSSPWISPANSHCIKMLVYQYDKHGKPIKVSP
Description: (§1) FIG. 2: Tryptophan, phenylalanine, and their derivatives activate GPR139. Human (A and B) or mouse (C and D) GPR139 were co-transfected with chimeric G-protein GO2Q into COS7 cells. Cell membranes from transfected cells were used in GTPγS binding studies using various ligands at different concentrations to stimulate GPR139. Membranes from COS7 cells transfected by GO2Q were used as the controls (E and F).

[2] = molecular target: T2, GPR139 (Homo sapiens, UniProt Q6DWJ6); experiment: GTPγS binding dose response, COS7 membranes co-transfected with human GPR139 and GO2Q; assay type: biochemical; parameters: expressed in transfected cells; host or cells: COS7; settings: human GPR139, FIG. 2 A and B
T2 sequence (Q6DWJ6 1-353): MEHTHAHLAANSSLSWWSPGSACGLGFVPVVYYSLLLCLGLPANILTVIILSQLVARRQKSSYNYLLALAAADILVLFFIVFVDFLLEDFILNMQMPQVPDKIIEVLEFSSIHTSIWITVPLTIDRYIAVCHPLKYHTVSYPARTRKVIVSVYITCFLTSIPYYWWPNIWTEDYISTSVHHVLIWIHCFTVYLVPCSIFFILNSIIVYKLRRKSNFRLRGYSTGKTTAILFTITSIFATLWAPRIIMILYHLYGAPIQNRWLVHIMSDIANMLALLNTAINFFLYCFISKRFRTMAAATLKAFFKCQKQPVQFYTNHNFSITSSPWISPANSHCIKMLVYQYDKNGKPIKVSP
Description: as §1

[3] = molecular target: T2, GPR139; experiment: calcium mobilization assay (FLIPR), GPR139 transiently expressed in HEK293 cells; assay type: cell-based; parameters: expressed in transfected cells; host or cells: HEK293; settings: for potency in calcium mobilization compared with L-Trp and L-Phe (in words): similar to GTPγS binding studies; for stimulation of calcium mobilization (in words): HEK293 cells transiently expressing human GPR139, FIG. 3
Description: For these experiments human GPR139 was transiently expressed in HEK293 cells and calcium mobilization was stimulated using L-Trp, L-Phe or their derivatives.

[4] = tested on: GO2Q alone; experiment: GTPγS binding assay, control membranes from COS7 cells expressing GO2Q alone (Ct-GO2Q); assay type: biochemical; settings: for Activation levels (GTPγS binding signal), Ct-GO2Q: 1 mM final concentration, single wells of triplicate, COS7 membranes with GO2Q alone (control panel); for activation of membranes from cells expressing GO2Q alone (in words): 1 mM, same assay
Description: as §1, with “Human” for “FIG. 2: Tryptophan, phenylalanine, and their derivatives activate GPR139. Human”
(§2) In order identify the ligands for GPR139 two improvements in the detection assay were made to allow for the ligands to be detected. First, we chose to use a GTPγS binding assay instead of using live cultured cells. The GTPγS binding assay is a cell free system that uses the cell membrane of the cell(s) of interest rather than the live cell(s). One advantage of this assay is that potential ligands present in the cell culture media are washed away when the cell membrane is prepared. This reduces the basal level of signal and increase the chance of detecting receptor ligands when assessing compounds that activate the receptor. Second, a GO2Q chimeric G-protein was created to be co-expressed with GPR139 in order to increase the signal-to-noise ratio in the GTPγS binding assay. Historically, the Gi, Go coupled GPCRs offer much greater signal-to-noise ratio in GTPγS binding studies. For Gs and Gq coupled GPCRs, although ligand-stimulated specific signals can be detected in a GTPγS binding assay, the signal-to-noise ratios are often very small. To address this a chimeric GO2-Gq chimeric G-protein, GO2Q, with the N-terminus from Go2 protein and the C-terminus from Gq protein.
(§3) To test for compounds that activate GPR139, different amino acids and their derivatives (Table 2) were tested as ligands in the GTPγS binding assay using cell membranes from COS7 cells co-expressing GPR139 and GO2Q. Cell membrane from COS7 cells expressing GO2Q alone or co-expressing other GPCRs were also tested in GTPγS binding assay in parallel as controls. Each compound was tested in triplicate.

[5] = molecular target: T2, GPR139; experiment: GTPγS binding assay, membranes from COS7 cells co-expressing GPR139 and GO2Q, single concentration screen; assay type: biochemical; parameters: expressed in transfected cells; host or cells: COS7; settings: for activation of GPR139 in GTPγS binding assay (in words): 1 mM; for Activation levels of GPR139 (GTPγS binding signal), GPR139-GO2Q: 1 mM final concentration, single wells of triplicate, COS7 membranes co-expressing GPR139 and GO2Q
Protocol: as §2, §3

[6] = molecular target: T3, GPR21 (Homo sapiens, UniProt Q99679); experiment: GTPγS binding assay, membranes co-expressing GO2Q and GPR21; assay type: biochemical; settings: data not shown
T3 construct: expressed in transfected cells; host or cells: COS7
Protocol: as §3

[7] = molecular target: T4, GPR52 (Homo sapiens, UniProt Q9Y2T5); experiment: GTPγS binding assay, membranes co-expressing GO2Q and GPR52; assay type: biochemical; settings: data not shown
T4 construct: expressed in transfected cells; host or cells: COS7
Protocol: as §3

[8] = tested on: GPCR119; experiment: GTPγS binding assay, membranes co-expressing GO2Q and GPCR119; assay type: biochemical; settings: data not shown
Protocol: as §3

[9] = tested on: GPCR132; experiment: GTPγS binding assay, membranes co-expressing GO2Q and GPCR132; assay type: biochemical; settings: data not shown
Protocol: as §3

[10] = tested on: GPCR134; experiment: GTPγS binding assay, membranes co-expressing GO2Q and GPCR134; assay type: biochemical; settings: data not shown
Protocol: as §3

[11] = molecular target: T5, GPR182 (Homo sapiens, UniProt O15218); experiment: GTPγS binding assay, membranes co-expressing GO2Q and GPR182; assay type: biochemical; settings: data not shown
T5 construct: expressed in transfected cells; host or cells: COS7
Protocol: as §3

T4 sequence (Q9Y2T5 whole entry, species assumed): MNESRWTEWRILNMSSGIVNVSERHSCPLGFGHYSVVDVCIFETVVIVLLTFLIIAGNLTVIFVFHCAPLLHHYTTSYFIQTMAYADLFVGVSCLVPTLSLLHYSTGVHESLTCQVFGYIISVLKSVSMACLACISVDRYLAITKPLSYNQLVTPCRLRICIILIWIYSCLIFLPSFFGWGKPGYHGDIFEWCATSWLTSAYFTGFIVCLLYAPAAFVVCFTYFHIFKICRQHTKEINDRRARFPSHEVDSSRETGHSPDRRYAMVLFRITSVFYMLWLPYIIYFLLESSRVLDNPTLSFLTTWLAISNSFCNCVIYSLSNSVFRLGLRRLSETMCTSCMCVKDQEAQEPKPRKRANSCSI
T5 sequence (O15218 whole entry, species assumed): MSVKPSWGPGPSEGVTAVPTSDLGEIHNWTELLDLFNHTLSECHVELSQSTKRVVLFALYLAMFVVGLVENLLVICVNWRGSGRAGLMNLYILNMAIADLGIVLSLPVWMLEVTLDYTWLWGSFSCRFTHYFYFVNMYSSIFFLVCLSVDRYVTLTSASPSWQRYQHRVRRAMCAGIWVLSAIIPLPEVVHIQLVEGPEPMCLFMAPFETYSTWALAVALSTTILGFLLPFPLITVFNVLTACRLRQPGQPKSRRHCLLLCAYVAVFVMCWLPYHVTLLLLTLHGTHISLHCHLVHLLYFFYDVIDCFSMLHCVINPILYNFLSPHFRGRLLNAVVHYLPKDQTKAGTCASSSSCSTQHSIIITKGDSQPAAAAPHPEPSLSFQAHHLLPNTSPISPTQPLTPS
T3 sequence (Q99679 whole entry, species assumed): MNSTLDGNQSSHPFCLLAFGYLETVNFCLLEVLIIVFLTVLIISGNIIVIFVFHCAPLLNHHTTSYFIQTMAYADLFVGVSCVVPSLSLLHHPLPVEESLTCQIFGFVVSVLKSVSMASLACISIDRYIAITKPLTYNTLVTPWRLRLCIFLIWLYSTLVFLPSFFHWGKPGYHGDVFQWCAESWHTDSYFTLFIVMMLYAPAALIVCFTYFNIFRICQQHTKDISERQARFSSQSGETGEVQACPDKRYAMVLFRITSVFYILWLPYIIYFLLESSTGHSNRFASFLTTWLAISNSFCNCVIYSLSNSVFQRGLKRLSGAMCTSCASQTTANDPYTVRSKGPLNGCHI

SMILES	dose response activation of GPR139 (in words) [1]	dose response activation of GPR139 (in words) [2]	potency in calcium mobilization compared with L-Trp and L-Phe (in words) [3]	Activation levels (GTPγS binding signal), Ct-GO2Q [4]	activation of GPR139 in GTPγS binding assay (in words) [5]	Activation levels of GPR139 (GTPγS binding signal), GPR139-GO2Q [5]	activation of membranes from cells expressing GO2Q alone (in words) [4]	activation of membranes co-expressing GO2Q and GPR21 (in words) [6]	activation of membranes co-expressing GO2Q and GPR52 (in words) [7]	activation of membranes co-expressing GO2Q and GPCR119 (in words) [8]	activation of membranes co-expressing GO2Q and GPCR132 (in words) [9]	activation of membranes co-expressing GO2Q and GPCR134 (in words) [10]	activation of membranes co-expressing GO2Q and GPR182 (in words) [11]	stimulation of calcium mobilization (in words) [3]	Activation levels (GTPγS binding signal), Ct-GO2Q ([4]; listed as b-phenylethylamine)	Activation levels of GPR139 (GTPγS binding signal), GPR139-GO2Q ([5]; listed as b-phenylethylamine)
Cn1cc(C[C@@H](N)C(=O)O)c2ccccc21 [1-methyl-D-Trp]	specifically activate GPR139 in a dose-responsive manner	specifically activate GPR139 in a dose-responsive manner	higher potencies	–	–	–	–	–	–	–	–	–	–	–	–	–
Cn1cc(C[C@H](N)C(=O)O)c2ccccc21 [1-methyl-L-Trp]	specifically activate GPR139 in a dose-responsive manner	specifically activate GPR139 in a dose-responsive manner	higher potencies	–	–	–	–	–	–	–	–	–	–	–	–	–
CC(N)Cc1ccccc1 (stereo not drawn) [Amphetamine, amphetamine]	specifically activate GPR139 in a dose-responsive manner	specifically activate GPR139 in a dose-responsive manner	–	2331 and 2132 and 2001	activated GPR139	7242 and 6744 and 7263	–	–	–	–	–	–	–	–	–	–
N[C@H](Cc1ccccc1)C(=O)O [D-Phe, D-phenylalanine]	specifically activate GPR139 in a dose-responsive manner	specifically activate GPR139 in a dose-responsive manner	–	–	–	–	–	–	–	–	–	–	–	–	–	–
N[C@H](Cc1c[nH]c2ccccc12)C(=O)O [D-Trp, D-tryptophan]	specifically activate GPR139 in a dose-responsive manner	specifically activate GPR139 in a dose-responsive manner	–	–	–	–	–	–	–	–	–	–	–	–	–	–
N[C@@H](Cc1ccccc1)C(=O)O [L-Phe, L-phenylalanine]	specifically activate GPR139 in a dose-responsive manner	specifically activate GPR139 in a dose-responsive manner	–	2190 and 2215 and 2345	able to activate GPR139	8697 and 6925 and 8417	did not activate	did not activate	did not activate	did not activate	did not activate	did not activate	did not activate	specifically stimulate calcium mobilization	–	–
N[C@@H](Cc1c[nH]c2ccccc12)C(=O)O [L-Trp, L-tryptophan]	specifically activate GPR139 in a dose-responsive manner	specifically activate GPR139 in a dose-responsive manner	–	2172 and 2234 and 2272	able to activate GPR139	8141 and 9121 and 9149	did not activate	did not activate	did not activate	did not activate	did not activate	did not activate	did not activate	specifically stimulate calcium mobilization	–	–
NCCc1c[nH]c2ccccc12 [Tryptamine, tryptamine]	specifically activate GPR139 in a dose-responsive manner	specifically activate GPR139 in a dose-responsive manner	–	2025 and 2048 and 2088	activated GPR139	6757 and 7686 and 7742	–	–	–	–	–	–	–	–	–	–
NCCc1ccccc1 [β-phenylethylamine]	specifically activate GPR139 in a dose-responsive manner	specifically activate GPR139 in a dose-responsive manner	–	–	activated GPR139	–	–	–	–	–	–	–	–	–	2334 and 2065 and 2024	6705 and 7099 and 6634
